Measured values taken from the NIST ThermoML archive (doi:10.1007/s10765-010-0766-0).
Several values for one entry are separate records, joined by “and”; a condition that tells them apart may be missing. Equal values may be shown once.

Test: molar heat capacity at constant volume; wn = mass fraction of the nth substance listed
Settings: Liquid, Vacuum adiabatic calorimetry, w2 = 0.4981

FC(F)C(F)(F)F [pentafluoroethane] + FCF
Settings	molar heat capacity at constant volume
277.15 K, 11982 kPa	66.66 J/K/mol
278.15 K, 12826 kPa	66.08 J/K/mol
279.15 K, 13669 kPa	66.51 J/K/mol
280.15 K, 14512 kPa	66.73 J/K/mol
281.15 K, 15355 kPa	66.15 J/K/mol
282.15 K, 16198 kPa	66.44 J/K/mol
283.15 K, 17040 kPa	65.86 J/K/mol
284.15 K, 17881 kPa	67.75 J/K/mol
285.15 K, 18722 kPa	66.22 J/K/mol
286.15 K, 19563 kPa	66.08 J/K/mol
287.15 K, 20403 kPa	66.15 J/K/mol
288.15 K, 21239 kPa	65.93 J/K/mol
289.15 K, 22077 kPa	67.1 J/K/mol
291.15 K, 23750 kPa	66.88 J/K/mol
292.15 K, 24585 kPa	66.81 J/K/mol
293.15 K, 25420 kPa	65.64 J/K/mol
294.15 K, 26254 kPa	66.37 J/K/mol
295.15 K, 27085 kPa	65.28 J/K/mol
296.15 K, 27917 kPa	67.31 J/K/mol
297.15 K, 8118 kPa	66.88 J/K/mol
297.15 K, 28747 kPa	66.22 J/K/mol
298.15 K, 29575 kPa	66.01 J/K/mol
299.15 K, 9422 kPa	68.48 J/K/mol
300.15 K, 10072 kPa	69.35 J/K/mol
300.15 K, 10089 kPa	66.22 J/K/mol
301.15 K, 10723 kPa	68.99 J/K/mol
301.15 K, 10737 kPa	69.93 J/K/mol
302.15 K, 11374 kPa	69.2 J/K/mol
302.15 K, 11385 kPa	67.31 J/K/mol
303.15 K, 12024 kPa	69.2 J/K/mol
303.15 K, 12032 kPa	68.7 J/K/mol
304.15 K, 12672 kPa	68.91 J/K/mol
304.15 K, 12680 kPa	68.77 J/K/mol
305.15 K, 13320 kPa	69.57 J/K/mol
305.15 K, 13327 kPa	69.06 J/K/mol
306.15 K, 13970 kPa	69.06 J/K/mol
306.15 K, 13973 kPa	68.99 J/K/mol
307.15 K, 14620 kPa	68.62 J/K/mol and 68.33 J/K/mol
308.15 K, 15268 kPa	69.71 J/K/mol and 68.11 J/K/mol
309.15 K, 15915 kPa	68.62 J/K/mol
309.15 K, 15917 kPa	69.57 J/K/mol
310.15 K, 16562 kPa	68.55 J/K/mol
310.15 K, 16564 kPa	68.84 J/K/mol
311.15 K, 17208 kPa	69.13 J/K/mol
311.15 K, 17212 kPa	68.99 J/K/mol
312.15 K, 17853 kPa	68.91 J/K/mol
312.15 K, 17859 kPa	68.41 J/K/mol
313.15 K, 18499 kPa	66.81 J/K/mol
313.15 K, 18506 kPa	68.77 J/K/mol
314.15 K, 19144 kPa	68.48 J/K/mol
314.15 K, 19153 kPa	69.13 J/K/mol
315.15 K, 19788 kPa	68.41 J/K/mol
315.15 K, 19798 kPa	69.35 J/K/mol
316.15 K, 20432 kPa	68.55 J/K/mol
316.15 K, 20443 kPa	68.41 J/K/mol
317.15 K, 21075 kPa	68.48 J/K/mol
317.15 K, 21088 kPa	68.62 J/K/mol
318.15 K, 21719 kPa	67.75 J/K/mol
318.15 K, 21733 kPa	68.55 J/K/mol
319.15 K, 22362 kPa	68.33 J/K/mol
319.15 K, 22377 kPa	67.9 J/K/mol
320.15 K, 23005 kPa	69.71 J/K/mol
320.15 K, 23021 kPa	69.2 J/K/mol
321.15 K, 23648 kPa	67.1 J/K/mol
321.15 K, 23665 kPa	68.33 J/K/mol
322.15 K, 24289 kPa	70.15 J/K/mol
322.15 K, 24307 kPa	68.41 J/K/mol
323.15 K, 24930 kPa	68.41 J/K/mol
323.15 K, 24949 kPa	69.71 J/K/mol
324.15 K, 25571 kPa	68.77 J/K/mol
324.15 K, 25590 kPa	68.04 J/K/mol
325.15 K, 26210 kPa	67.61 J/K/mol
325.15 K, 26231 kPa	68.41 J/K/mol
326.15 K, 26850 kPa	68.62 J/K/mol
326.15 K, 26871 kPa	68.11 J/K/mol
327.15 K, 27488 kPa	68.55 J/K/mol
327.15 K, 27511 kPa	67.75 J/K/mol
328.15 K, 28127 kPa	68.62 J/K/mol
328.15 K, 28150 kPa	68.19 J/K/mol
329.15 K, 5865 kPa	70.22 J/K/mol
329.15 K, 5904 kPa	72.11 J/K/mol
329.15 K, 28764 kPa	69.13 J/K/mol
329.15 K, 28790 kPa	68.62 J/K/mol
330.15 K, 6231 kPa	73.78 J/K/mol
330.15 K, 6255 kPa	72.33 J/K/mol
330.15 K, 6269 kPa	69.13 J/K/mol
330.15 K, 29402 kPa	68.04 J/K/mol
330.15 K, 29426 kPa	67.97 J/K/mol
331.15 K, 6598 kPa	70.66 J/K/mol
331.15 K, 6620 kPa	71.09 J/K/mol
331.15 K, 6635 kPa	70.15 J/K/mol
331.15 K, 30065 kPa	69.93 J/K/mol
332.15 K, 6965 kPa	73.2 J/K/mol
332.15 K, 6987 kPa	73.28 J/K/mol
332.15 K, 7002 kPa	71.46 J/K/mol
333.15 K, 7333 kPa	71.39 J/K/mol
333.15 K, 7355 kPa	71.82 J/K/mol
333.15 K, 7370 kPa	69.13 J/K/mol
334.15 K, 7700 kPa	71.17 J/K/mol
334.15 K, 7723 kPa	71.02 J/K/mol
334.15 K, 7736 kPa	71.24 J/K/mol
335.15 K, 8069 kPa	71.02 J/K/mol
335.15 K, 8090 kPa	72.62 J/K/mol
335.15 K, 8104 kPa	70.51 J/K/mol
336.15 K, 8438 kPa	70.73 J/K/mol
336.15 K, 8457 kPa	69.5 J/K/mol
336.15 K, 8472 kPa	70.88 J/K/mol
337.15 K, 8807 kPa	71.02 J/K/mol
337.15 K, 8826 kPa	71.53 J/K/mol
337.15 K, 8840 kPa	69.42 J/K/mol
338.15 K, 9176 kPa	71.02 J/K/mol
338.15 K, 9194 kPa	71.39 J/K/mol
338.15 K, 9209 kPa	69.42 J/K/mol
339.15 K, 9546 kPa	70.66 J/K/mol
339.15 K, 9563 kPa	71.39 J/K/mol
339.15 K, 9579 kPa	69.57 J/K/mol
340.15 K, 9916 kPa	70.3 J/K/mol
340.15 K, 9933 kPa	70.37 J/K/mol
340.15 K, 9949 kPa	68.91 J/K/mol
341.15 K, 10286 kPa	70.44 J/K/mol
341.15 K, 10302 kPa	70.95 J/K/mol
341.15 K, 10320 kPa	70.15 J/K/mol
342.15 K, 10657 kPa	69.79 J/K/mol
342.15 K, 10672 kPa	70.59 J/K/mol
342.15 K, 10691 kPa	68.55 J/K/mol
343.15 K, 11028 kPa	70.15 J/K/mol
343.15 K, 11043 kPa	71.46 J/K/mol
343.15 K, 11061 kPa	70.08 J/K/mol
344.15 K, 11399 kPa	70.08 J/K/mol
344.15 K, 11413 kPa	70.59 J/K/mol
344.15 K, 11431 kPa	68.99 J/K/mol
345.15 K, 6187 kPa	86.29 J/K/mol
345.15 K, 11770 kPa	69.79 J/K/mol
345.15 K, 11784 kPa	71.39 J/K/mol
345.15 K, 11802 kPa	69.35 J/K/mol
346.15 K, 6420 kPa	87.01 J/K/mol
346.15 K, 12143 kPa	70.3 J/K/mol
346.15 K, 12155 kPa	70.37 J/K/mol
346.15 K, 12174 kPa	68.62 J/K/mol
347.15 K, 6655 kPa	85.49 J/K/mol
347.15 K, 6657 kPa	86.07 J/K/mol
347.15 K, 12515 kPa	70.44 J/K/mol
347.15 K, 12527 kPa	72.33 J/K/mol
347.15 K, 12547 kPa	69.35 J/K/mol
348.15 K, 6890 kPa	85.63 J/K/mol
348.15 K, 6893 kPa	86.51 J/K/mol
348.15 K, 12887 kPa	69.06 J/K/mol
348.15 K, 12899 kPa	70.15 J/K/mol
348.15 K, 12919 kPa	68.84 J/K/mol
349.15 K, 7127 kPa	83.74 J/K/mol
349.15 K, 7130 kPa	86.51 J/K/mol
349.15 K, 13259 kPa	69.86 J/K/mol
349.15 K, 13271 kPa	70.95 J/K/mol
349.15 K, 13292 kPa	69.42 J/K/mol
350.15 K, 7364 kPa	85.2 J/K/mol
350.15 K, 7368 kPa	84.47 J/K/mol
350.15 K, 13631 kPa	69.42 J/K/mol
350.15 K, 13643 kPa	70.15 J/K/mol
350.15 K, 13664 kPa	69.28 J/K/mol
351.15 K, 7602 kPa	84.11 J/K/mol
351.15 K, 7606 kPa	85.42 J/K/mol
351.15 K, 14004 kPa	70.08 J/K/mol
351.15 K, 14015 kPa	70.73 J/K/mol
351.15 K, 14036 kPa	68.48 J/K/mol
352.15 K, 7841 kPa	83.23 J/K/mol
352.15 K, 7845 kPa	84.11 J/K/mol
352.15 K, 14377 kPa	69.06 J/K/mol
352.15 K, 14387 kPa	70.22 J/K/mol
352.15 K, 14409 kPa	68.84 J/K/mol
353.15 K, 8080 kPa	82.36 J/K/mol
353.15 K, 8084 kPa	83.16 J/K/mol
353.15 K, 14750 kPa	70.08 J/K/mol
353.15 K, 14761 kPa	71.46 J/K/mol
353.15 K, 14783 kPa	68.41 J/K/mol
354.15 K, 8320 kPa	83.38 J/K/mol
354.15 K, 8324 kPa	83.89 J/K/mol
354.15 K, 15123 kPa	69.5 J/K/mol
354.15 K, 15133 kPa	70.59 J/K/mol
354.15 K, 15157 kPa	68.48 J/K/mol
355.15 K, 8560 kPa	82.73 J/K/mol
355.15 K, 8565 kPa	84.62 J/K/mol
355.15 K, 15496 kPa	69.64 J/K/mol
355.15 K, 15507 kPa	70.59 J/K/mol
355.15 K, 15531 kPa	69.64 J/K/mol
356.15 K, 8801 kPa	83.45 J/K/mol
356.15 K, 8806 kPa	82.87 J/K/mol
356.15 K, 15869 kPa	70.59 J/K/mol
356.15 K, 15880 kPa	69.93 J/K/mol
356.15 K, 15904 kPa	68.99 J/K/mol
